Columns and labels:
[1] = tested on: K562 human leukemia cell line; conditions: background, antitumour activity; cited from earlier work
TCDD-induced MCF-7 cells = assay: TCDD-induced MCF-7 cell line cytotoxicity assay, MTT; assay type: cell-based, human; conditions: for IC50: 96 hours, MTT
Text: (§1) CYP1A1 and CYP1B1 enzyme activity is induced by TCDD (tetrachlorodibenzodioxin (Dioxin)) in breast tumour MCF-7 cells (see, e.g., Sutter et al., 1994). CYP1B1 is expressed in a variety of human tumours, and can be inducible by TCDD in numerous cell types including breast, liver, lung, and kidney (see, e.g., Murray et al., 1997). CYP1B1 is known to catalyse estradiol 4-hydroxylation metabolism. In untreated culture, the constitutive rate of estradiol E2 metabolism in MCF-7 cells is minimal. However, treatment with TCDD causes a marked increase in the rate of E2 metabolism (see, e.g., Spink et al., 1994). […] Therefore the cytotoxicity of compounds in non-induced MCF-7 cells correlates to the cytotoxicity of compounds against normal cells, whilst the cytotoxicity of compounds against TCDD-induced MCF-7 cells correlates to the cytotoxicity of compounds against real tumours that express CYP1B1.
(§2) The cytotoxicity of compounds in non-induced MCF-7 cells correlates to the cytotoxicity of compounds against normal cells, whilst the cytotoxicity of compounds against TCDD-induced MCF-7 cells correlates to the cytotoxicity of compounds against real tumours that express CYP1B1.
Cells were maintained in RPMI 1640 with Glutamax 1 (Life Technologies) with 10% (v/v) heat inactivated foetal calf serum (Hybrimax. Sigma), at 37° C., 5% CO2/95% air with 100% humidity and passaged using trypsin/EDTA. 1×10^3 cells were plated out in 100 μl medium per well of 96-well flat-bottomed plates (Fisher). After 4 hours to allow adherance, 100 μl of medium containing TCDD (British Greyhound Chromatography; 10 μM stock in DMSO (dimethylsulfoxide)) or medium with 0.2% (v/v) DMSO as control was added to each well to give a final concentration of 10 nM TCDD, 0.1% (v/v) DMSO, for 24 hours to allow maximal CYP expression. The medium was then carefully aspirated and 100 μl fresh medium added. Within 30 minutes test compound was added in quadruplicate in 100 μl medium (with or without inhibitors) at double the final concentration from 100 mM stock in DMSO to give a final concentration of not more than 0.1% (v/v) DMSO, or DMSO solvent alone at 0.1% (v/v) as control. The cells were then allowed to grow on for 96 hours to give 80–90% confluence in the control wells. 50 μl MTT (Thiazol blue, Sigma) at 2 mg/ml in Dulbecco's phosphate buffered saline-A, was then added to each well for 3 hours. All medium was aspirated, then the formazan product generated by viable cells was solubilized with 150 μl DMSO. Plates were vortexed and the absorbance at 540 nm determined using a plate reader. Results were expressed as the percentage of 100% (control) proliferation and the IC50 calculated using the line of best fit for a sigmoidal dose response curve with variable slope using Graphpad Prizm software. All determinations were carried out in at least triplicate. […]

MCF-7 cells = assay: MCF-7 cell line (non-induced) cytotoxicity assay, MTT; assay type: cell-based; conditions: Homo sapiens, MCF7; non-induced MCF-7 cells, 96 hours, MTT; read-out: MCF-7 Cells IC50
Text: as §1, §2
Cells were maintained in RPMI 1640 with Glutamax 1 (Life Technologies) with 10% (v/v) heat inactivated foetal calf serum (Hybrimax. Sigma), at 37° C., 5% CO2/95% air with 100% humidity and passaged using trypsin/EDTA. 1×10^3 cells were plated out in 100 μl medium per well of 96-well flat-bottomed plates (Fisher). After 4 hours to allow adherance, 100 μl of medium containing TCDD (British Greyhound Chromatography; 10 μM stock in DMSO (dimethylsulfoxide)) or medium with 0.2% (v/v) DMSO as control was added to each well to give a final concentration of 10 nM TCDD, 0.1% (v/v) DMSO, for 24 hours to allow maximal CYP expression. The medium was then carefully aspirated and 100 μl fresh medium added. Within 30 minutes test compound was added in quadruplicate in 100 μl medium (with or without inhibitors) at double the final concentration from 100 mM stock in DMSO to give a final concentration of not more than 0.1% (v/v) DMSO, or DMSO solvent alone at 0.1% (v/v) as control. The cells were then allowed to grow on for 96 hours to give 80–90% confluence in the control wells. 50 μl MTT (Thiazol blue, Sigma) at 2 mg/ml in Dulbecco's phosphate buffered saline-A, was then added to each well for 3 hours. All medium was aspirated, then the formazan product generated by viable cells was solubilized with 150 μl DMSO. Plates were vortexed and the absorbance at 540 nm determined using a plate reader. Results were expressed as the percentage of 100% (control) proliferation and the IC50 calculated using the line of best fit for a sigmoidal dose response curve with variable slope using Graphpad Prizm software. All determinations were carried out in at least triplicate.

[2] = tested on: MCF-10A normal breast cell line; assay: MCF-10A normal cell line cytotoxicity assay; assay type: cell-based; conditions: Homo sapiens, without TCDD
Method: (§3) Cells were maintained in RPMI 1640 with Glutamax 1 (Life Technologies) with 10% (v/v) heat inactivated foetal calf serum (Hybrimax. Sigma), at 37° C., 5% CO2/95% air with 100% humidity and passaged using trypsin/EDTA. 1×10^3 cells were plated out in 100 μl medium per well of 96-well flat-bottomed plates (Fisher). […] The medium was then carefully aspirated and 100 μl fresh medium added. […] 50 μl MTT (Thiazol blue, Sigma) at 2 mg/ml in Dulbecco's phosphate buffered saline-A, was then added to each well for 3 hours. All medium was aspirated, then the formazan product generated by viable cells was solubilized with 150 μl DMSO. Plates were vortexed and the absorbance at 540 nm determined using a plate reader. […] All determinations were carried out in at least triplicate.
(§4) This cell culture based assay is performed using the two cell lines MDA-468 and MCF-10A. The MDA468 cell line is an advanced breast cancer cell line, whilst the MCF-10A cell line is a normal breast cell line.
(§5) This assay was performed using the two cell lines MDA-468 and MCF-10A according to the procedure described above for the MCF-7 assay, but without the addition of TCDD.
(§6) The tumour selectivity differential factor (TSDF) is calculated by dividing the IC50 obtained from the MCF-10A data by the IC50 obtained from the MDA-468 data.

[3] = tested on: MDA-468 advanced breast cancer cell line; assay: MDA-468 tumour cell line cytotoxicity assay; assay type: cell-based, human
Method: as §3, §4, §5, §6

| SMILES | IC50 [1] [µM] | increase in the cytotoxic activity by the induction of CYP1B1 (TCDD-induced MCF-7 cells; FIG. 1, un-induced versus TCDD-induced MCF-7 cells) [fold] | IC50 (TCDD-induced MCF-7 cells; Homo sapiens, MCF7, MCF-7 cells induced with 10 nM TCDD for 24 hours) [µM] | Tumour Selectivity Differential Factor (TCDD-induced MCF-7 cells; MCF-7 IC50 versus TCDD-induced MCF-7 IC50 (Table 1)) | IC50 (TCDD-induced MCF-7 cells; MCF-7 cells induced with 10 nM TCDD for 24 hours) [µM] | more toxic to “tumour” cells than to “normal” cells (TCDD-induced MCF-7 cells; TCDD-induced MCF-7 versus MCF-7) [fold] | IC50 (MCF-7 cells) [µM] | IC50 [2] [µM] | IC50 ([3]; Homo sapiens, without TCDD) [µM] | Tumour Selectivity Differential Factor ([3]; IC50 MCF-10A divided by IC50 MDA-468 (Table 2)) | more toxic to cancer cells than to normal cells (tumour selectivity) ([3]; MDA-468 versus MCF-10A) [fold] |
| --- | --- | --- | --- | --- | --- | --- | --- | --- | --- | --- | --- |
| CC(=O)/C=C/c1ccc(O)cc1 [(E)-1-(4′-hydroxyphenyl)but-1-en-3-one] | 60 |  |  |  |  |  |  |  |  |  |  |
| CCCOc1ccc(/C=C/C(=O)c2cc(OC)cc(OC)c2)cc1 [DMU-175, (E)-1-(4-propoxyphenyl)-3-(3,5-dimethoxyphenyl)prop-1-en-3-one] |  | 28 | 0.54 | 30 | 0.5 | 30 | 15 | 16 | 1.4 | 11 | 11 |

Source: patent US7112698B2, “4-(c2-6alkoxy)-substituted chalcones as therapeutic agents” (Spear Therapeutics Limited, priority 2001, dated 2006)
